Assay results taken from PubChem BioAssay (NCI).
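The compound was tested at five concentrations on cells cultured in 96-well plates, with a 48-hour exposure period. GI50: concentration for 50% inhibition of growth.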 Active and inactive are the calls of the source. Cut-off read from the data, not from the text of the source: active = GI50 below about 0.43 µM; inactive = the rest.

Key:
Assay in all cases: NCI anticancer screen, dose series, 48 h
NCI-H23 lung = system: NCI-H23 lung
MALME-3M melanoma = system: MALME-3M melanoma
OVCAR-3 ovarian = system: OVCAR-3 ovarian
SF-295 CNS = system: SF-295 CNS
HCT-116 colon = system: HCT-116 colon
SK-OV-3 ovarian = system: SK-OV-3 ovarian
BT-549 breast = system: BT-549 breast
RPMI-8226 leukemia = system: RPMI-8226 leukemia
HL-60(TB) leukemia = system: HL-60(TB) leukemia
RXF 393 renal = system: RXF 393 renal
A549 NSCLC = system: A549 NSCLC
PC-3 prostate = system: PC-3 prostate
HCT-15 colon = system: HCT-15 colon
NCI-H226 lung = system: NCI-H226 lung
UO-31 renal = system: UO-31 renal
SR leukemia = system: SR leukemia
SK-MEL-5 melanoma = system: SK-MEL-5 melanoma
OVCAR-5 ovarian = system: OVCAR-5 ovarian
SNB-19 CNS = system: SNB-19 CNS
IGROV1 ovarian = system: IGROV1 ovarian
UACC-257 melanoma = system: UACC-257 melanoma
786-0 renal = system: 786-0 renal
SF-268 CNS = system: SF-268 CNS
DU-145 prostate = system: DU-145 prostate
TK-10 renal = system: TK-10 renal
SK-MEL-2 melanoma = system: SK-MEL-2 melanoma
CAKI-1 renal = system: CAKI-1 renal
HT29 colon = system: HT29 colon
ACHN renal = system: ACHN renal
OVCAR-4 ovarian = system: OVCAR-4 ovarian
NCI/ADR-RES ovarian = system: NCI/ADR-RES ovarian
K-562 leukemia = system: K-562 leukemia
CCRF-CEM leukemia = system: CCRF-CEM leukemia
OVCAR-8 ovarian = system: OVCAR-8 ovarian
SF-539 CNS = system: SF-539 CNS
A498 renal = system: A498 renal
MOLT-4 leukemia = system: MOLT-4 leukemia
COLO 205 colon = system: COLO 205 colon
SNB-75 CNS = system: SNB-75 CNS
SN12C renal = system: SN12C renal
SW-620 colon = system: SW-620 colon
HS 578T breast = system: HS 578T breast
UACC-62 melanoma = system: UACC-62 melanoma
MCF7 breast = system: MCF7 breast
NCI-H522 lung = system: NCI-H522 lung
NCI-H460 lung = system: NCI-H460 lung
U251 CNS = system: U251 CNS
HOP-62 NSCLC = system: HOP-62 NSCLC
M14 melanoma = system: M14 melanoma
MDA-MB-231 breast = system: MDA-MB-231 breast
LOX IMVI melanoma = system: LOX IMVI melanoma
MDA-MB-435 = system: MDA-MB-435
KM12 colon = system: KM12 colon
EKVX NSCLC = system: EKVX NSCLC
T-47D breast = system: T-47D breast
SK-MEL-28 melanoma = system: SK-MEL-28 melanoma

Measured: GI50

CS(C)(=O)=O
inactive: NCI-H23 lung | MALME-3M melanoma | OVCAR-3 ovarian | SF-295 CNS | HCT-116 colon | SK-OV-3 ovarian | BT-549 breast | RPMI-8226 leukemia | HL-60(TB) leukemia | RXF 393 renal | A549 NSCLC | PC-3 prostate | HCT-15 colon | NCI-H226 lung | UO-31 renal | SR leukemia | SK-MEL-5 melanoma | OVCAR-5 ovarian | SNB-19 CNS | IGROV1 ovarian | UACC-257 melanoma | 786-0 renal | SF-268 CNS | DU-145 prostate | TK-10 renal | SK-MEL-2 melanoma | CAKI-1 renal | HT29 colon | ACHN renal | OVCAR-4 ovarian | NCI/ADR-RES ovarian | K-562 leukemia | CCRF-CEM leukemia | OVCAR-8 ovarian | SF-539 CNS | A498 renal 42 mM | MOLT-4 leukemia | COLO 205 colon | SNB-75 CNS | SN12C renal | SW-620 colon | HS 578T breast | UACC-62 melanoma | MCF7 breast | NCI-H522 lung | NCI-H460 lung | U251 CNS | HOP-62 NSCLC | M14 melanoma | MDA-MB-231 breast | LOX IMVI melanoma | MDA-MB-435 | KM12 colon | EKVX NSCLC | T-47D breast | SK-MEL-28 melanoma
